In patent publication US6395684B1, “Selective herbicides based on a substituted phenyl sulfonyl amino carbonyl triazolinone” (Bayer Aktiengesellschaft, priority 1998, dated 2002):
Counter-ions that a name gives are not always drawn.

Columns and labels:
Type in all cases: in vivo
[1] = test system: Bromus; experiment: Post-emergence test/greenhouse; conditions: 60 g ai./ha, greenhouse, after three weeks
Experimental: (§1) Post-emergence Test/greenhouse Solvent: 5 parts by weight of acetone Emulsifier: 1 part by weight of alkylaryl polyglycol ether To produce a suitable preparation of active compound, 1 part by weight of active compound is mixed with the stated amount of solvent, the stated amount of emulsifier is added and the concentrate is diluted with water to the desired concentration. Test plants which have a height of 5-15 cm are sprayed with the preparation of active compound such that the particular amounts of active compound desired are applied per unit area. The concentration of the spray liquor is chosen so that the particular amounts of active compound desired are applied in 500 l of water/ha. After three weeks, the degree of damage to the plants is assessed in % damage in comparison to the development of the untreated control. The figures denote: 0%=no effect (like untreated control) 100% total destruction

[2] = test system: Wheat; experiment: Post-emergence test/greenhouse; conditions: greenhouse
Experimental: as §1

[3] = test system: Alopecurus; experiment: Post-emergence test/greenhouse; conditions: 60 g ai./ha, greenhouse, after three weeks
Experimental: as §1

[4] = test system: Agropyron; experiment: Post-emergence test/greenhouse; conditions: 60 g ai./ha, greenhouse, after three weeks
Experimental: as §1

[5] = test system: Avena; experiment: Post-emergence test/greenhouse; conditions: 60 g ai./ha, greenhouse, after three weeks
Experimental: as §1

[6] = test system: Lolium; experiment: Post-emergence test/greenhouse; conditions: 60 g ai./ha, greenhouse, after three weeks
Experimental: as §1

[7] = test system: Phalaris minor; experiment: Post-emergence test/outdoors (Example E, California); conditions: 42 g a.i./ha to 45 g a.i./ha, + SAS, outdoors, irrigation wheat growing area, 2 tests
[8] = test system: Bromus tectorum; experiment: Post-emergence tests/outdoors (Example D, USA); conditions: 42 g a.i./ha to 45 g a.i./ha, post-emergence (autumn), outdoors, winter wheat, with surface-active substances (SAS), 37 tests
Experimental: (§2) The active compound was applied by the post-emergence method (spring) across the area by the spray method, with an average droplet size. To produce a useful preparation of active compound, the active compound was formulated as 70 WP or 70 WG (70% w/w water-dispersible powder or granules) and applied with customary amounts of water. To assess the crop compatibility, from 1 to 8 weeks after the treatment, plant growth inhibitions or […] of the leaf area were assessed in % damage in comparison to the development of the untreated control. At different intervals after the treatment, the herbicidal activity was assessed as % reduction in comparison to the untreated control, based on the weed development. The figures denote: 0%=no damage of the crops or no herbicidal effect, 100%=total destruction of the crops or the weeds. Post-emergence Tests/outdoors The sodium salt of the compound of the formula (I) was tested under outdoor conditions in the main cultivation areas of winter wheat in the USA (Pacific Northwest, North Central Area, Central Plains) against economically important weeds. The design, the practice and the evaluation of the experiments corresponded to Example C. The active compound was applied in autumn. Wetting of the plants was improved by addition of commercial surface-active substances (SAS) in the concentrations recommended by the respective manufacturer.

[9] = test system: Erysimum cheiranthoides; experiment: Post-emergence tests/outdoors (Example D, USA); conditions: 42 g a.i./ha to 45 g a.i./ha, post-emergence (autumn), outdoors, winter wheat, with surface-active substances (SAS), 10 tests
Experimental: as §2

[10] = test system: Phalaris paradoxa; experiment: Post-emergence test/outdoors (Example E, California); conditions: 42 g a.i./ha to 45 g a.i./ha, + SAS, outdoors, irrigation wheat growing area, 8 tests
[11] = test system: winter wheat; experiment: Post-emergence tests/outdoors (Example D, USA), crop compatibility; conditions: 42 g a.i./ha to 45 g a.i./ha, post-emergence (autumn), outdoors, with surface-active substances (SAS), 78 tests
Experimental: as §2

CCCOc1nn(C(=O)NS(=O)(=O)c2ccccc2C(=O)OC)c(=O)n1C [(I)-Na-salt, 2-(2-methoxycarbonyl-phenylsulphonylaminocarbonyl)-4-methyl-5-propoxy-2,4-dihydro-3H-1,2,4-triazol-3-one]
degree of damage to the plants (% damage in comparison to the untreated control) [1]: 95% | degree of damage to the plants (% damage in comparison to the untreated control) ([2]; Wheat, 60 g ai./ha, after three weeks): 0% | compatibility with crop plants (wheat), in words ([2]; sodium salt of (I) at 60 g/ha): very good compatibility | degree of damage to the plants (% damage in comparison to the untreated control) [3]: 90% | degree of damage to the plants (% damage in comparison to the untreated control) [4]: 100% | degree of damage to the plants (% damage in comparison to the untreated control) [5]: 80% | degree of damage to the plants (% damage in comparison to the untreated control) [6]: 80% | herbicidal effect (%) [7]: 93% | herbicidal effect (%) [8]: 90% | herbicidal effect (%) [9]: 89% | herbicidal effect (%) [10]: 99% | Damage to the crop (wheat) [11]: 2%
